Earlier results, collected in patent US8685965B2, “CGRP receptor antagonists” (Merck Sharp & Dohme Corp., priority 2008, dated 2014).
Ends that are not written are not given here.

Assays:
[1] = test system: headache induced by CGRP infusion; conditions: control group; Petersen et al. 2005
[2] = test system: acute attacks of migraine; conditions: clinical trials; Olesen et al. 2004
[3] = test system: facial blood flow; conditions: marmoset; Doods et al. 2000
[4] = test system: middle meningeal artery; conditions: rats, prior administration; Williamson et al. 1997
[5] = test system: facial blood flow; conditions: rat; Escott et al. 1995

NCCCC[C@H](NC(=O)[C@@H](Cc1cc(Br)c(O)c(Br)c1)NC(=O)N1CCC(N2Cc3ccccc3NC2=O)CC1)C(=O)N1CCN(c2ccncc2)CC1 [BIBN4096BS]
prevention of headache induced by CGRP infusion [1]: able to prevent headache induced by CGRP infusion
efficacy in treating acute attacks of migraine [2]: effective in treating acute attacks of migraine
effect on increase of facial blood flow after electrical stimulation of the trigeminal ganglion [3]: could be blocked

CGRP(8-37): a peptide CGRP antagonist; fragment of CGRP that lacks seven N-terminal amino acid residues (VTHRLAGLLSRSGGVVKNNFVPTNVGSKAF; ends and bridges not checked; UniProt P06881 90-119, looked up, fragment)
effect on increase of middle meningeal artery diameter after electrical stimulation of the dura mater [4]: blocked
effect on increase of facial blood flow after trigeminal ganglion stimulation [5]: inhibited
